According to patent publication US9637496B2, “Substituted 7-azabicycles and their use as orexin receptor modulators” (priority 2013, dated 2017):
Like-named read-outs stand apart in the source and are kept apart here.

Assays:
human orexin 2 receptor = human orexin 2 receptor (Homo sapiens (Human), UniProt O43614); assay: Human orexin 2 receptor radioligand binding ([3H]-EMPA competition, HEK293 membranes)
human orexin 1 receptor = human orexin 1 receptor (Homo sapiens (Human), UniProt O43613); assay: Human orexin 1 receptor radioligand binding (competitive binding, CHO membranes)
Sequence of human orexin 1 receptor (O43613 whole entry): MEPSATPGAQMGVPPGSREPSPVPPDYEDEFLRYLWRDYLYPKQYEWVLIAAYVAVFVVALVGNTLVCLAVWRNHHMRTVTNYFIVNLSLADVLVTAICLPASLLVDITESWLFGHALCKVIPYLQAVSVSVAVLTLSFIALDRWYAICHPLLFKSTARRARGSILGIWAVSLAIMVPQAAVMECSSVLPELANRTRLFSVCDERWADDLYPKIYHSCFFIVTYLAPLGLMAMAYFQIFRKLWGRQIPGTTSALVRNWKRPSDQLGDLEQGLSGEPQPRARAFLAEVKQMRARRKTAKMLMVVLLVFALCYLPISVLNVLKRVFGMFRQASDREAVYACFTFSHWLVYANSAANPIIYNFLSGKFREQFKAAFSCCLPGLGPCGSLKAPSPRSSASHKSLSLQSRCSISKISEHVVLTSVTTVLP

rat orexin 1 receptor = rat orexin 1 receptor (Rattus norvegicus (Rat), UniProt P56718); assay: Rat orexin 1 receptor radioligand binding (competitive binding, HEK293 membranes)
Sequence of rat orexin 1 receptor (P56718 whole entry): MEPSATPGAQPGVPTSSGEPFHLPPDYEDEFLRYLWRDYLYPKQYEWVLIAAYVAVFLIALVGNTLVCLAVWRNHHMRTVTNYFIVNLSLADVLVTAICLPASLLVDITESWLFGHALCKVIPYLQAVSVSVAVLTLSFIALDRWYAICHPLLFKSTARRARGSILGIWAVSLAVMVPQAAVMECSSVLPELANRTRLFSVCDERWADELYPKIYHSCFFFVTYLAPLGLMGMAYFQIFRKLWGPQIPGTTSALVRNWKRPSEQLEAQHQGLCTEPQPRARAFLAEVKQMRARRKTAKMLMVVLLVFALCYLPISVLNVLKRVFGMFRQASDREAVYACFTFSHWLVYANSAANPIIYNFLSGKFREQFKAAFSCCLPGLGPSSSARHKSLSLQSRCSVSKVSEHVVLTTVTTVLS

[1] = human orexin 2 receptor, Table 2, averages from between 2-20 runs, read-out: hOX2 Ki
[2] = human orexin 1 receptor, Table 2, averages from between 2-20 runs, read-out: hOX1 Ki
[3] = rat orexin 1 receptor, Table 2, averages from between 2-20 runs, read-out: rOX1 Ki

Sequence of human orexin 2 receptor (O43614 whole entry): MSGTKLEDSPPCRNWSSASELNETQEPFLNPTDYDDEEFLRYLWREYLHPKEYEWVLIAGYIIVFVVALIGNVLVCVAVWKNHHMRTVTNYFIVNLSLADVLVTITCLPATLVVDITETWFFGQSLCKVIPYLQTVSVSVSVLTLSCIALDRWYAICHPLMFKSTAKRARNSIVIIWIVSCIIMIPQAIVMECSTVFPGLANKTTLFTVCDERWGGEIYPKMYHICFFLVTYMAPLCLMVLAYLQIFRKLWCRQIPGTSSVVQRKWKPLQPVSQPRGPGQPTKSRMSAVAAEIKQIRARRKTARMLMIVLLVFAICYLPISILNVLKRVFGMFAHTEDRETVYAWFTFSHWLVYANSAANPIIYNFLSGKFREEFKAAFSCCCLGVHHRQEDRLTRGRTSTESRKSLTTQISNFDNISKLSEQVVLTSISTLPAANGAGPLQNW

SMILES | Ki (human orexin 2 receptor) [nM] | Ki (human orexin 1 receptor) [nM] | Ki (rat orexin 1 receptor) [nM] | Ki (human orexin 2 receptor; [1]) [nM] | Ki (human orexin 1 receptor; [2]) [nM] | Ki (rat orexin 1 receptor; [3]) [nM] | Ki (human orexin 1 receptor; read-out: hOX1 Ki) [nM] | Ki (rat orexin 1 receptor; read-out: rOX1 Ki) [nM]
O=C(c1cccc(F)c1-c1ncccn1)N1[C@@H]2CC[C@H]1[C@H](Nc1ccc(C(F)(F)F)cn1)C2 [Example 279, (3-fluoro-2-(pyrimidin-2-yl)phenyl)((1S,2R,4R)-2-((5-(trifluoromethyl)pyridin-2-yl)amino)-7-azabicyclo[2.2.1]heptan-7-yl)methanone] | 990 | 9 | 18 | – | – | – | – | –
O=C(c1cccc(F)c1-c1ncco1)N1[C@@H]2CC[C@H]1[C@H](Nc1ccc(C(F)(F)F)cn1)C2 [Example 298, (3-fluoro-2-(oxazol-2-yl)phenyl)((1S,2R,4R)-2-((5-(trifluoromethyl)pyridin-2-yl)amino)-7-azabicyclo[2.2.1]heptan-7-yl)methanone] | – | – | – | 500 | 18 | 18 | – | –
Cc1cccc(C(=O)N2[C@@H]3CC[C@H]2[C@H](Nc2ccc(C(F)(F)F)cn2)C3)c1-c1ncccn1 [Example 299, (3-methyl-2-(pyrimidin-2-yl)phenyl)((1S,2R,4R)-2-((5-(trifluoromethyl)pyridin-2-yl)amino)-7-azabicyclo[2.2.1]heptan-7-yl)methanone] | – | – | – | 234 | 7 | 16 | – | –
O=C(c1cccc(Cl)c1-c1ncccn1)N1[C@@H]2CC[C@H]1[C@H](Nc1cnc(C(F)(F)F)cn1)C2 [Example 300, (3-chloro-2-(pyrimidin-2-yl)phenyl)((1S,2R,4R)-2-((5-(trifluoromethyl)pyrazin-2-yl)amino)-7-azabicyclo[2.2.1]heptan-7-yl)methanone] | – | – | – | 93 | – | – | 9 | 9
Cc1cccc(C(=O)N2[C@@H]3CC[C@H]2[C@H](Nc2ccc(Br)cn2)C3)c1-c1ncco1 [Example 302, ((1S,2R,4R)-2-((5-bromopyridin-2-yl)amino)-7-azabicyclo[2.2.1]heptan-7-yl)(3-methyl-2-(oxazol-2-yl)phenyl)methanone] | – | – | – | 188 | – | – | 5 | 5
O=C(c1cccc(F)c1-c1ncccn1)N1C2CCC1C(Nc1ccc(Br)cn1)C2 [Example 303, ((1S,2R,4R)-2-((5-bromopyridin-2-yl)amino)-7-azabicyclo[2.2.]heptan-7-yl)(3-fluoro-2-(pyrimidin-2-yl)phenyl)methanone] | – | – | – | 1300 | – | – | 16 | 22
Cc1cccc(C(=O)N2[C@@H]3CC[C@H]2[C@H](Nc2ccc(Br)cn2)C3)c1-c1ncccn1 [Example 304, ((1S,2R,4R)-2-((5-bromopyridin-2-yl)amino)-7-azabicyclo[2.2.1]heptan-7-yl)(3-methyl-2-(pyrimidin-2-yl)phenyl)methanone] | – | – | – | 455 | 16 | 12 | – | –
O=C(c1cccc(F)c1-n1nccn1)N1[C@@H]2CC[C@H]1[C@H](Nc1ccc(Br)cn1)C2 [Example 305, ((1S,2R,4R)-2-((5-bromopyridin-2-yl)amino)-7-azabicyclo[2.2.1]heptan-7-yl)(3-fluoro-2-(2H-1,2,3-triazol-2-yl)phenyl)methanone] | – | – | – | 980 | – | – | 12 | 24
Cc1cccc(C(=O)N2[C@@H]3CC[C@H]2[C@H](Nc2ccc(Br)cn2)C3)c1-n1nccn1 [Example 306, ((1S,2R,4R)-2-((5-bromopyridin-2-yl)amino)-7-azabicyclo[2.2.1]heptan-7-yl)(3-methyl-2-(2H-1,2,3-triazol-2-yl)phenyl)methanone] | – | – | – | 396 | – | – | 4 | 11
Cc1cccc(C(=O)N2C3CCC2C(Nc2cnc(Br)cn2)C3)c1-c1ncco1 [Example 308, ((1S,2R,4R)-2-((5-bromopyrazin-2-yl)amino)-7-azabicyclo[2.2.]heptan-7-yl)(3-methyl-2-(oxazol-2-yl)phenyl)methanone] | – | – | – | 173 | 4 | 6 | – | –
O=C(c1cccc(F)c1-c1ncccn1)N1[C@@H]2CC[C@H]1[C@H](Nc1cnc(Br)cn1)C2 [Example 309, ((1S,2R,4R)-2-((5-bromopyrazin-2-yl)amino)-7-azabicyclo[2.2.1]heptan-7-yl)(3-fluoro-2-(pyrimidin-2-yl)phenyl)methanone] | – | – | – | 1100 | – | – | 22 | 19
Cc1cccc(C(=O)N2[C@@H]3CC[C@H]2[C@H](Nc2cnc(Br)cn2)C3)c1-c1ncccn1 [Example 310, ((1S,2R,4R)-2-((5-bromopyrazin-2-yl)amino)-7-azabicyclo[2.2.1]heptan-7-yl)(3-methyl-2-(pyrimidin-2-yl)phenyl)methanone] | – | – | – | 381 | 7 | 9 | – | –
O=C(c1cccc(F)c1-n1nccn1)N1[C@@H]2CC[C@H]1[C@H](Nc1cnc(Br)cn1)C2 [Example 311, ((1S,2R,4R)-2-((5-bromopyrazin-2-yl)amino)-7-azabicyclo[2.2.1]heptan-7-yl)(3-fluoro-2-(2H-1,2,3-triazol-2-yl)phenyl)methanone] | – | – | – | 1000 | – | – | 21 | 17
Cc1cccc(C(=O)N2[C@@H]3CC[C@H]2[C@H](Nc2cnc(Br)cn2)C3)c1-n1nccn1 [Example 312, ((1S,2R,4R)-2-((5-bromopyrazin-2-yl)amino)-7-azabicyclo[2.2.1]heptan-7-yl)(3-methyl-2-(2H-1,2,3-triazol-2-yl)phenyl)methanone] | – | – | – | 360 | – | – | 9 | 6
Cc1cccc(C(=O)N2[C@@H]3CC[C@H]2[C@H](Nc2ncc(Br)cn2)C3)c1-c1ncco1 [Example 314, ((1S,2R,4R)-2-((5-bromopyrimidin-2-yl)amino)-7-azabicyclo[2.2.1]heptan-7-yl)(3-methyl-2-(oxazol-2-yl)phenyl)methanone] | – | – | – | 349 | – | – | 14 | 6
O=C(c1cccc(F)c1-c1ncccn1)N1[C@@H]2CC[C@H]1[C@H](Nc1ncc(Br)cn1)C2 [Example 315, ((1S,2R,4R)-2-((5-bromopyrimidin-2-yl)amino)-7-azabicyclo[2.2.1]heptan-7-yl)(3-fluoro-2-(pyrimidin-2-yl)phenyl)methanone] | – | – | – | 1850 | 52 | 30 | – | –
Cc1cccc(C(=O)N2[C@@H]3CC[C@H]2[C@H](Nc2ncc(Br)cn2)C3)c1-c1ncccn1 [Example 316, ((1S,2R,4R)-2-((5-bromopyrimidin-2-yl)amino)-7-azabicyclo[2.2.1]heptan-7-yl)(3-methyl-2-(pyrimidin-2-yl)phenyl)methanone] | – | – | – | 796 | – | 20 | 59 | –
O=C(c1cccc(F)c1-n1nccn1)N1[C@@H]2CC[C@H]1[C@H](Nc1ncc(Br)cn1)C2 [Example 317, ((1S,2R,4R)-2-((5-bromopyrimidin-2-yl)amino)-7-azabicyclo[2.2.1]heptan-7-yl)(3-fluoro-2-(2H-1,2,3-triazol-2-yl)phenyl)methanone] | – | – | – | 1600 | 70 | 31 | – | –
Cc1cccc(C(=O)N2[C@@H]3CC[C@H]2[C@H](Nc2ncc(Br)cn2)C3)c1-n1nccn1 [Example 318, ((1S,2R,4R)-2-((5-bromopyrimidin-2-yl)amino)-7-azabicyclo[2.2.1]heptan-7-yl)(3-methyl-2-(2H-1,2,3-triazol-2-yl)phenyl)methanone] | – | – | – | 768 | – | – | 13 | 9
O=C(c1cccc(F)c1-c1ccccn1)N1[C@@H]2CC[C@H]1[C@H](Nc1ccc(C(F)(F)F)cn1)C2 [Example 320, (3-fluoro-2-(pyridin-2-yl)phenyl)((1S,2R,4R)-2-((5-(trifluoromethyl)pyridin-2-yl)amino)-7-azabicyclo[2.2.1]heptan-7-yl)methanone] | – | – | – | 260 | – | – | 14 | 37
O=C(c1ccc(F)cc1-n1nccn1)N1[C@@H]2CC[C@H]1[C@H](Nc1ccc(C(F)(F)F)cn1)C2 [Example 368, (4-fluoro-2-(2H-1,2,3-triazol-2-yl)phenyl)((1S,2R,4R)-2-((5-(trifluoromethyl)pyridin-2-yl)amino)-7-azabicyclo[2.2.1]heptan-7-yl)methanone] | – | – | – | 2600 | 71 | 78 | – | –
O=C(c1cc(F)ccc1-n1nccn1)N1[C@@H]2CC[C@H]1[C@H](Nc1ccc(C(F)(F)F)cn1)C2 [Example 369, (5-fluoro-2-(2H-1,2,3-triazol-2-yl)phenyl)((1S,2R,4R)-2-((5-(trifluoromethyl)pyridin-2-yl)amino)-7-azabicyclo[2.2.1]heptan-7-yl)methanone] | – | – | – | 629 | 45 | 67 | – | –
O=C(c1c(F)cccc1-n1nccn1)N1[C@@H]2CC[C@H]1[C@H](Nc1ccc(C(F)(F)F)cn1)C2 [Example 370, (2-fluoro-6-(2H-1,2,3-triazol-2-yl)phenyl)((1S,2R,4R)-2-((5-(trifluoromethyl)pyridin-2-yl)amino)-7-azabicyclo[2.2.1]heptan-7-yl)methanone] | – | – | – | 508 | 142 | 104 | – | –
O=C(c1cc(F)ccc1-c1ncccn1)N1[C@@H]2CC[C@H]1[C@H](Nc1ccc(C(F)(F)F)cn1)C2 [Example 371, (5-fluoro-2-(pyrimidin-2-yl)phenyl)((1S,2R,4R)-2-((5-(trifluoromethyl)pyridin-2-yl)amino)-7-azabicyclo[2.2.1]heptan-7-yl)methanone] | – | – | – | 615 | 27 | 42 | – | –
O=C(c1c(F)cccc1-c1ncccn1)N1[C@@H]2CC[C@H]1[C@H](Nc1ccc(C(F)(F)F)cn1)C2 [Example 372, (2-fluoro-6-(pyrimidin-2-yl)phenyl)((1S,2R,4R)-2-((5-(trifluoromethyl)pyridin-2-yl)amino)-7-azabicyclo[2.2.1]heptan-7-yl)methanone] | – | – | – | 420 | – | – | 13 | 19
O=C(c1ccccc1-c1ncccn1)N1[C@@H]2CC[C@H]1[C@H](Nc1ccc(C(F)(F)F)cn1)C2 [Example 373, (2-(pyrimidin-2-yl)phenyl)((1S,2R,4R)-2-((5-(trifluoromethyl)pyridin-2-yl)amino)-7-azabicyclo[2.2.1]heptan-7-yl)methanone] | – | – | – | 679 | – | – | 36 | 34
